# Tested on: luciferase gene expression in HEK 293 cells in response to Comp. 004
# Experiment: Screen of riboswitch constructs with 12C6-1 variant aptamers (libraries N1-N5) against Comp. 004, luciferase in HEK 293 cells
# Assay type: cell-based, human
# Conditions: library N1 (J2-4), HEK 293, 25 M [sic] Comp. 004
# Outline: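 Riboswitch constructs carrying 12C6-1 aptamer variants, randomized in J2-4, J2-3/J3-3a/J3a-2/P3, L3a, J4-5/J5-4/P4 or L5 regions (libraries N1-N5), cloned into an intron-exon-intron cassette driving luciferase. Screened in HEK 293 cells with 25 µM Comp. 004; read-out is fold induction of gene expression versus parent Luci-12C6-1.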
row,Compound,Fold (induction of luciferase gene expression) [fold]
1,N1_2D2 (CTGGGGAGTCCTTCATGCGGGGC; chemistry not given here),102.23
2,N1_2E2 (CTGGGGAGTCCTTCATGCGGGGC; chemistry not given here),7.86
3,N1_2G9 (CTGGGGAGTCCTTCATGCGGGGC; chemistry not given here),30.93
4,N1_2F6 (CTGGGGAGTCCTTCATGCGGGGC; chemistry not given here),185.92

# Same assay, conditions: library N2 variant aptamers (J2-3, P3-J3-3a, J3a-2 randomized) of 12C6-1 in riboswitch constructs; in response to Comp. 004; HEK 293 cells
row,Compound,Fold (induction of luciferase gene expression) [fold]
1,N2_2B9 (CTGGGGAGTCCTTCATGC; chemistry not given here),1.1
2,N2_2B3 (CTGGGGAGTCCTTCATGC; chemistry not given here),1.2
3,N2_2D7 (DNA CTGGGGAGTCCTTCATGC; chemistry not given here),1.0
4,N2_2A2 (CTGGGGAGTCCTTCATGC; chemistry not given here),0.7
5,N2_2C6 (CTGGGGAGTCCTTCATGC; chemistry not given here),0.9
6,N2_2C5 (CTGGGGAGTCCTTCATGC; chemistry not given here),1.0
7,N2_2B4 (CTGGGGAGTCCTTCATGC; chemistry not given here),0.8
8,N2_2D8 (DNA CTGGGGAGTCCTTCATGC; chemistry not given here),1.1
9,N2_2G4 (DNA CTGGGGAGTCCTTCATGC; chemistry not given here),1.1

# Same assay, conditions: library N5 variant aptamers (L5, X16-X21 randomized) of 12C6-1 in riboswitch constructs; in response to Comp. 004 treatment; HEK 293 cells
row,Compound,Fold (induction of luciferase gene expression) [fold]
1,N5_1C5 (CTGGGGAGTCCT; chemistry not given here),966.1
2,N5_1E12 (CTGGGGAGTCCT; chemistry not given here),1588.2
3,N5_4D8 (CTGGGGAGTCCT; chemistry not given here),565.6
4,N5_1F4 (CTGGGGAGTCCT; chemistry not given here),958.5
5,N5_1B10 (CTGGGGAGTCCT; chemistry not given here),1013.6
6,N5_7H4 (DNA CTGGGGAGTCCT; chemistry not given here),560.0
7,N5_7C8 (DNA CTGGGGAGTCCT; chemistry not given here),1313.8
8,N5_1A7 (CTGGGGAGTCCT; chemistry not given here),659.9
9,N5_7A6 (CTGGGGAGTCCT; chemistry not given here),314.5
10,N5_6E6 (CTGGGGAGTCCT; chemistry not given here),1032.8
11,N5_1G9 (CTGGGGAGTCCT; chemistry not given here),1230.3
12,N5_7B5 (CTGGGGAGTCCT; chemistry not given here),779.9
13,N5_8F1 (DNA CTGGGGAGTCCT; chemistry not given here),951.8
14,N5_7G1 (DNA CTGGGGAGTCCT; chemistry not given here),935.4
15,N5_1C9 (CTGGGGAGTCCT; chemistry not given here),915.3
16,N5_7B10 (CTGGGGAGTCCT; chemistry not given here),1361.5
17,N5_1E11 (CTGGGGAGTCCT; chemistry not given here),1095.6

row,Compound,Fold (induction of luciferase gene expression) [fold]
1,N5_7D5 (DNA CTGGGGAGTCCT; chemistry not given here),1182.3
2,N5_2D10 (CTGGGGAGTCCT; chemistry not given here),884.5
3,N5_1G8 (CTGGGGAGTCCT; chemistry not given here),888.7
4,N5_7F6 (DNA CTGGGGAGTCCT; chemistry not given here),898.5
5,N5_1D3 (CTGGGGAGTCCT; chemistry not given here),697.1
6,N5_9G7 (DNA CTGGGGAGTCCT; chemistry not given here),937.7
7,N5_12G6 (CTGGGGAGTCCT; chemistry not given here),2750.8
8,N5_1A11 (CTGGGGAGTCCT; chemistry not given here),793.5
9,N5_7G3 (DNA CTGGGGAGTCCT; chemistry not given here),799.3
10,N5_1A10 (CTGGGGAGTCCT; chemistry not given here),674.4
11,N5_2D8 (CTGGGGAGTCCT; chemistry not given here),1047.3
12,N5_7D6 (DNA CTGGGGAGTCCT; chemistry not given here),1210.5
13,N5_7F9 (DNA CTGGGGAGTCCT; chemistry not given here),642.4
14,N5_1H3 (CTGGGGAGTCCT; chemistry not given here),764.7
15,N5_1A1 (CTGGGGAGTCCT; chemistry not given here),670.2
16,N5_9C2 (DNA CTGGGGAGTCCT; chemistry not given here),1027.6

# Tested on: N5-12G6 riboswitch
# Experiment: Firefly luciferase assay, N5-12G6 riboswitch in HEK293 cells
# Conditions: 12G6 riboswitch, HEK293
# Experimental: Transfection: 3.5×10^4 human embryonic kidney (HEK) 293 cells were plated in a 96-well flat bottom plate the day before transfection. Plasmid DNA (500 ng) was added to a tube or a 96-well U-bottom plate. Separately, TransIT-293 reagent (Mirus; 1.4 L) was added to 50 μL Optimum I media (Life Technologies) and allowed to sit for 5 minutes at room temperature (RT). Then, 50 μL of this diluted transfection reagent was added to the DNA, mixed, and incubated at RT for 20 min. Finally, 7 μL of this solution was added to a well of cells in the 96-well plate. Four hours after transfection, medium containing transfection solution was replaced by medium with either TPP or fursultiamine as aptamer ligands.
# Firefly luciferase assay of cultured cells: Twenty-four hours after media change, plates were removed from the incubator, and equilibrated to RT for several minutes on a lab bench, then aspirated. Glo-lysis buffer (Promega, 100 μL, RT) was added, and the plates allowed to remain at RT for at least 5 minutes. Then, the well contents were mixed by 50 μL trituration, and 20 μL of each sample was mixed with 20 μL of bright-glo reagent (Promega) that had been diluted to 10% in glo-lysis buffer. 96 wells were spaced on an opaque white 384-well plate. Following a 5 min incubation at RT, luminescence was measured using a Tecan machine with 500 ms read time. The luciferase activity was expressed as mean arbitrary light units (ALU)±S.D., and fold induction was calculated as the quotient of the luciferase activity obtained from cells with TPP or analog compound treatment divided by the luciferase activity obtained from cells without TPP or analog compound treatment.
row,Compound,regulation of luciferase expression (FIG. 4e)
1,"Fc1cc(CNc2cnccc2N2CCNCC2)cc2nccnc12 [compound 012, N-((8-Fluoroquinoxalin-6-yl)methyl)-4-(piperazin-1-yl)pyridin-3-amine]",regulate expression in a dose-dependent fashion
2,"c1cc(OC2CCNC2)c(NCc2ccc3nccnc3c2)cn1 (centres unmarked) [compound 018, 4-(Pyrrolidin-3-yloxy)-N-(quinoxalin-6-ylmethyl)pyridin-3-amine]",regulate expression in a dose-dependent fashion

# Same assay, conditions: Homo sapiens, HEK293, read-out: Fold induction 2 μM (HEK), 12G6 riboswitch, luciferase, HEK293, 2 μM
row,Compound,fold induction at 2 µM
1,"Fc1cncc(NCc2cc(F)c3nccnc3c2)c1N1CCCNCC1 [compound 095, 4-(1,4-diazepan-1-yl)-5-fluoro-N-((8-fluoroquinoxalin-6-yl)methyl)pyridin-3-amine]",8.9
2,"Clc1cc2nccnc2cc1CNc1cnccc1N1C[C@@H]2C[C@H]1CN2 [compound 097, 4-((1S,4S)-2,5-diazabicyclo[2.2.1]heptan-2-yl)-N-((7-chloroquinoxalin-6-yl)methyl)pyridin-3-amine]",2.6
3,"Clc1cc2nccnc2cc1CNc1cncc(Cl)c1N1CCNCC1 [compound 054, 5-chloro-N-((7-chloroquinoxalin-6-yl)methyl)-4-(piperazin-1-yl)pyridin-3-amine]",10.6
4,"Fc1cncc(NCc2ccc3nccnc3c2F)c1N1CCNCC1 [compound 079, 5-fluoro-N-((5-fluoroquinoxalin-6-yl)methyl)-4-(piperazin-1-yl)pyridin-3-amine]",4.4
5,"Clc1cncc(NCc2ccc3nccnc3c2)c1O[C@@H]1CCNC1 [compound 110, (R)-5-chloro-4-(pyrrolidin-3-yloxy)-N-(quinoxalin-6-ylmethyl)pyridin-3-amine]",43.1
6,"Clc1cc(CNc2cnccc2O[C@@H]2CCNC2)cc2nccnc12 [compound 106, (R)—N-((8-chloroquinoxalin-6-yl)methyl)-4-(pyrrolidin-3-yloxy)pyridin-3-amine]",22.2
7,"Cc1cncc(NCc2ccc3nccnc3c2)c1O[C@@H]1CCNC1 [compound 111, (R)-5-methyl-4-(pyrrolidin-3-yloxy)-N-(quinoxalin-6-ylmethyl)pyridin-3-amine]",74
8,"COc1cncc(NCc2ccc3nccnc3c2)c1N1CCNCC1 [compound 075, 5-methoxy-4-(piperazin-1-yl)-N-(quinoxalin-6-ylmethyl)pyridin-3-amine]",18.6
9,"Fc1cc2nccnc2cc1CNc1cncc(Cl)c1O[C@@H]1CCNC1 [compound 120, (R)-5-chloro-N-((7-fluoroquinoxalin-6-yl)methyl)-4-(pyrrolidin-3-yloxy)pyridin-3-amine]",24.7
10,"C[C@H]1CN(c2c(F)cncc2NCc2ccc3nccnc3c2)CCN1 [compound 103, (S)-5-fluoro-4-(3-methylpiperazin-1-yl)-N-(quinoxalin-6-ylmethyl)pyridin-3-amine]",23.3

# Same assay, conditions: Homo sapiens, HEK293, read-out: Fold induction 3.3 μM (HEK), 12G6 riboswitch, luciferase, HEK293, 3.3 μM
row,Compound,fold induction at 3.3 µM
1,"C[C@H]1CN(c2ccncc2NCc2ccc3nccnc3c2)CCN1 [compound 042, (S)-4-(3-methylpiperazin-1-yl)-N-(quinoxalin-6-ylmethyl)pyridin-3-amine]",29

# Same assay, conditions: Homo sapiens, HEK293, read-out: Fold induction 25 μM (HEK), 12G6 riboswitch, luciferase, HEK293, 25 μM
row,Compound,fold induction at 25 µM
1,"Fc1cc(CNc2cnccc2N2CCNCC2)cc2nccnc12 [compound 012, N-((8-Fluoroquinoxalin-6-yl)methyl)-4-(piperazin-1-yl)pyridin-3-amine]",383
2,"c1cc(OC2CCNC2)c(NCc2ccc3nccnc3c2)cn1 (centres unmarked) [compound 018, 4-(Pyrrolidin-3-yloxy)-N-(quinoxalin-6-ylmethyl)pyridin-3-amine]",286
3,"c1cc(N2CCOCC2)c(NCc2ccc3nccnc3c2)cn1 [compound 039, 4-morpholino-N-(quinoxalin-6-ylmethyl)pyridin-3-amine]",6

# Source: US20250101436A1, “APTAMERS AND SMALL MOLECULE LIGANDS” (MeiraGTx UK II Limited, priority 2021, published 2025)
